{
  "source": "patent US8273344B2",
  "about": "“Recombinant adeno-associated virus expressing human antisense gene CyP2J2 and its preparation methods” (priority 2004, dated 2012)",
  "key": {"[1]": {"tested_on": "transplantation tumor", "assay": "Growth of transplantation tumor under epoxygenase inhibitor (FIG. 17)", "assay_type": "in vivo", "details": "FIG. 17, without joint use of 5-fluorouracil"}, "[2]": {"tested_on": "four tumor cell lines", "assay": "Proliferation of four kinds of tumor cells in vitro", "assay_type": "cell-based, human", "details": "FIG. 15, dose dependence", "from_the_text": "The epoxygenase metabolizes arachidonic acid to yield endogenous epoxyeicosatrienoic acids. Thus, the EETs concentration is increased indirectly. This can directly verity that the function of CYP epoxygenase for promoting proliferation of tumor cells."}, "[3]": {"tested_on": "four different kinds of tumor cell lines", "assay": "TNFα-induced apoptosis of tumor cells (DNA ladder, acridine orange staining, flow cytometry)", "assay_type": "cell-based, human", "details": "for total apoptotic rate: flow cytometry; for number of apoptotic cells (acridine orange / ethidium bromide staining): fluorescent microscope, vs control group", "description": "A week later, TNFα is used to induce the apoptosis of tumor cells. The apoptosis is measured using different methods. […] Thus, the EETs and epoxygenase gene resist the apoptosis of cancer cells induced by TNF-α. After PI staining and Annexin V-FITC/PI dobule staining separatively, the total apoptosis rate and early apoptosis rate of cells are calculated using flow cytometry."}, "[4]": {"tested_on": "Tca-8113, A549, Ncl-H446, and HepG2 cell lines", "assay": "Migration and invasion of tumor cells in modified Boyden chamber", "assay_type": "cell-based, human", "details": "5 h, P<0.01", "description": "The migration of epithelial cells in the modified Boyden chamber is measured using a conventional method. A polycarbonate filter membrane of […] is coated at 4° C. for 24 h using collagen IV (10 μg/mL) and Matrigel (11 μg/filter). The Tca-8113, A549, Ncl-H446, and HepG2 cell lines are washed with DMEM culture solution to 2×10^6/mL. 200 μL of DMEM containing 5% FBS is added to the low part of the Boyden chamber as a chemoattractant, and followed by covering a polycarbonate filter membrane. 800 μL of a cell suspension is added to the upper part of the Boyden chamber, cultured at 37° C. at 5% CO2 for 5 h. The device is disassembled and the membrane is collected. The cells are cleaned off, and the membrane is fixed with carbinol and stained with hematoxylin. Five fields of vision per membrane are observed under a 200× microscope. Subsequently, the number of migrating cells is calculated."}, "[5]": {"tested_on": "Akt, Bcl-2, Bcl-xL, Bax", "assay_type": "cell-based"}, "[6]": {"tested_on": "tumor", "assay": "Growth of tumor under EET blocker (FIG. 16)", "details": "FIG. 16, 100 nmol/L"}, "[7]": {"details": "EET pretreatment experiment, control 28.15%±4.7"}},
  "note": "Values joined by “and” are separate entries in the source; they are usually repeats but may differ in a detail not shown here. Identical values can stand only once.",
  "data": [
    {"compound": "C#CCCCCCCCCCCCCCCCC(=O)O", "note": "[17-ODYA]", "values": [
      {"measurement": "growth of transplantation tumor", "setting": "[1]", "value": "can inhibit"},
      {"measurement": "growth of tumor cells", "setting": "[2]", "value": "dose-dependently inhibits"},
      {"measurement": "total apoptotic rate", "setting": "[3]; [7]", "value": "52.65%±3.6"},
      {"measurement": "number of apoptotic cells (acridine orange / ethidium bromide staining)", "setting": "[3]", "value": "large"},
      {"measurement": "apoptosis of tumor cells (in words)", "setting": "[3]; induced by TNF-α", "value": "promotes significantly"},
      {"measurement": "total apoptotic rate", "setting": "[3]; transfection experiment, control 20.15%±3.5", "value": "33.51%±6.1"},
      {"measurement": "ability of migrating of cells relative to basal state", "setting": "[4]", "value": "about 60 % of basal state"},
      {"measurement": "expression of antiapoptosis protein Bcl-2 and Bcl-xL", "setting": "[5]", "value": "completely opposite effect"},
      {"measurement": "expression of apoptosis protein Bax", "setting": "[5]", "value": "completely opposite effect"},
      {"measurement": "phosphorylation of Akt", "setting": "[5]", "value": "completely opposite effect"}
    ]},
    {"compound": "CCCCCC1OC1C/C=C\\C/C=C\\C/C=C\\CCCC(=O)O", "note": "(centres unmarked) [14, 15-EET]", "values": [
      {"measurement": "growth of tumor", "setting": "[6]", "value": "can inhibit"}
    ]},
    {"compound": "epoxyeicosatrienoic acids [EETs]", "values": [
      {"measurement": "total apoptotic rate", "setting": "[3]; [7]", "value": "14.94%±3.5 and 11.72%±4.2 and 12.89%±2.7"},
      {"measurement": "formation of DNA ladder", "setting": "[3]; TNFα-induced apoptosis", "value": "decrease significantly"},
      {"measurement": "number of apoptotic cells (acridine orange / ethidium bromide staining)", "setting": "[3]", "value": "significantly less"},
      {"measurement": "expression of antiapoptosis protein Bcl-2 and Bcl-xL", "setting": "[5]", "value": "increase"},
      {"measurement": "expression of apoptosis protein Bax", "setting": "[5]", "value": "decrease"},
      {"measurement": "phosphorylation of Akt", "setting": "[5]", "value": "promote"}
    ]}
  ]
}
